Patent publication US7468353B2, “Biologically active substance of a vasoactive intestinal peptide for treating interstitial lung diseases” (Mondobiotech Laboratories Anstalt, priority 2003, dated 2008)

Key:
PACAP receptor type II = details: PACAP versus VIP; cited from earlier work
PACAP receptor type I = target: T1, PACAP receptor type I (Homo sapiens, UniProt P41586); details: cited from earlier work
T1 sequence (P41586 21-468): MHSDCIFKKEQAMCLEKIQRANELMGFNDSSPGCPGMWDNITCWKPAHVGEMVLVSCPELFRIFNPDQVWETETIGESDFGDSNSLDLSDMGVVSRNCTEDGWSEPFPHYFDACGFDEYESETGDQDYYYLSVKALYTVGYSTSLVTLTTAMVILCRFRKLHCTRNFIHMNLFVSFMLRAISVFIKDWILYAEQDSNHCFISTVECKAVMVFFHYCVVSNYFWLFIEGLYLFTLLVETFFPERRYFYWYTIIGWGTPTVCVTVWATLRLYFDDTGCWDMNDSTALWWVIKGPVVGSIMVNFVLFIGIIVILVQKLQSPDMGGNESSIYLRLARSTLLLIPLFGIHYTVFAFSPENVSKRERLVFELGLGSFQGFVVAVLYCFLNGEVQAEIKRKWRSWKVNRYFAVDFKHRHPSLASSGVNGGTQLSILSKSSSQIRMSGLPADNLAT

[1] = test system: MHC II surface molecules on human dentritic cells; experiment: Effect of VIP on human dentritic cells: MHC II surface molecules, fluorescence-activated cell analysis; format: cell-based
From the text: [The procedure below names another target; the source lists this target under the same test.] (§1) FIGS. 1-11 show the effect of VIP on the maturation of human dentritic cells. […] is a characteristic surface protein on mature dentritic cells. Low rates of said protein indicate non-maturation of cells and thus, the inability to execute their biological function. […] Said reduction is indicated by the value M1 38.22—when measuring after application of 9.1 μmol—and compared to the value M1 81.26 (FIG. 10) of untreated cells (FIG. 1)—in the fluorescence-activated cell analysis. This procedure consists of searching the cell surfaces with the help of fluorescence-marked antibodies for the corresponding antigens (here: CD 83).

[2] = test system: CD 83 surface molecules on human dentritic cells; experiment: Effect of VIP on maturation of human dentritic cells: CD 83 surface molecules, fluorescence-activated cell analysis; format: cell-based
From the text: as §1

[3] = test system: MHC I surface molecules on human dentritic cells; experiment: Effect of VIP on human dentritic cells: MHC I surface molecules, fluorescence-activated cell analysis; format: cell-based
[4] = VIP 9.1 μM, marker All, FIG. 11

His-Ser-Asp-Gly-Ile-Phe-Thr-Asp-Ser-Tyr-Ser-Arg-Tyr-Arg-Lys-Gln-Met-Ala-Val-Lys-Lys-Tyr-Leu-Ala-Ala-Val-Leu-Gly-Lys-Arg-Tyr-Lys-Gln-Arg-Val-Lys-Asn-Lys [PACAP]
affinity of receptor type II (PACAP receptor type II): similar | affinity of receptor type I (PACAP receptor type I): high affinity

His-Ser-Asp-Ala-Val-Phe-Thr-Asp-Asn-Tyr-Thr-Arg-Leu-Arg-Lys-Gln-Met-Ala-Val-Lys-Lys-Tyr-Leu-Asn-Ser-Ile-Leu-Asn [VIP]
value M1 for MHC II ([1]; 9.1 μmol VIP, untreated cells 83.94): 77.73 | MHC II % Gated, marker All ([1]; VIP 1 μM, FIG. 8): 100.00% | MHC II Mean, marker All ([1]; VIP 1 μM, FIG. 8): 170.33 | MHC II % Gated, marker M1 ([1]; VIP 1 μM, FIG. 8): 77.41% | MHC II Mean, marker M1 ([1]; VIP 1 μM, FIG. 8): 207.21 | MHC II % Gated, marker All ([1]; VIP 9.1 μM, FIG. 12): 100.00% | MHC II Mean, marker All ([1]; VIP 9.1 μM, FIG. 12): 175.73 | MHC II % Gated, marker M1 ([1]; VIP 9.1 μM, FIG. 12): 77.73% | MHC II Mean, marker M1 ([1]; VIP 9.1 μM, FIG. 12): 213.25 | inhibition of MHC II surface molecules compared with CD 83 ([1]; same dose of VIP): far less inhibited | affinity of receptor type II (PACAP receptor type II): similar | CD 83 % Gated, marker All ([2]; VIP 1 μM, FIG. 6): 100.00% | CD 83 Mean, marker All ([2]; VIP 1 μM, FIG. 6): 108.13 | CD 83 % Gated, marker M1 ([2]; VIP 1 μM, FIG. 6): 69.70% | CD 83 Mean, marker M1 ([2]; VIP 1 μM, FIG. 6): 137.30 | CD 83 % Gated, marker All ([2]; VIP 9.1 μM, FIG. 10): 100.00% | CD 83 Mean, marker All ([2]; VIP 9.1 μM, FIG. 10): 76.48 | CD 83 % Gated, marker M1 ([2]; VIP 9.1 μM, FIG. 10): 38.22% | CD 83 Mean, marker M1 ([2]; VIP 9.1 μM, FIG. 10): 143.06 | value M1 for CD 83 ([2]; after application of 9.1 μmol VIP, untreated cells 81.26): 38.22 | effect on CD 83 surface molecules ([2]; application of 1 μmol VIP (FIG. 5)): dramatic reduction | effect on CD 83 surface molecules ([2]; application of 9.1 μmol VIP (FIG. 9)): dramatic reduction | affinity of receptor type I (PACAP receptor type I): very low affinity | value M1 for MHC 1 ([3]; 9.1 μmol VIP, untreated cells 85.59): 70.57 | MHC I % Gated, marker All ([3]; VIP 1 μM, marker All, FIG. 7): 100.00% | MHC I Mean, marker All ([3]; VIP 1 μM, marker All, FIG. 7): 200.61 | MHC I % Gated, marker M1 ([3]; VIP 1 μM, marker M1, FIG. 7): 78.69% | MHC I Mean, marker M1 ([3]; VIP 1 μM, marker M1, FIG. 7): 242.97 | MHC 1 % Gated, marker All [3, 4]: 100.00% | MHC 1 Mean, marker All [3, 4]: 136.67 | MHC 1 % Gated, marker M1 ([3]; VIP 9.1 μM, marker M1, FIG. 11): 70.57% | MHC 1 Mean, marker M1 ([3]; VIP 9.1 μM, marker M1, FIG. 11): 174.61 | inhibition of MHC I surface molecules compared with CD 83 ([3]; same dose of VIP): far less inhibited
